Data from ChEMBL document CHEMBL1130748, “Design and synthesis of monocyclic beta-lactams as mechanism-based inhibitors of human cytomegalovirus protease” (Bioorg Med Chem Lett, 1998).

Legend:
[1] = molecular target: Capsid scaffolding protein (Human cytomegalovirus (strain AD169) (HHV-5) (Human herpesvirus 5), UniProt P16753); experiment: Concentration required to inhibit the mutant alpha-Ala HCMV protease by 50% was determined
Human betaherpesvirus 5 [2] = experiment: Compound was evaluated for antiviral activity measured as percentage inhibition determined at a concentration of 100 (uM) against mutant alpha-Ala HCMV protease; assay type: functional
Human betaherpesvirus 5 [3] = experiment: Compound was evaluated for antiviral activity measured as percentage inhibition determined at a concentration of 500 (uM) against mutant alpha-Ala HCMV protease; assay type: functional
[4] = Compound was tested for its stability by HPLC method, value expressed as half life; assay type: physicochemical
Human betaherpesvirus 5 [5] = experiment: Binding affinity towards mutant alpha-Ala HCMV protease was determined; assay type: functional
Acetylcholinesterase = Acetylcholinesterase (Homo sapiens, UniProt P22303); experiment: Concentration required to inhibit the mammalian Acetylcholinesterase by 50% was determined
Homo sapiens = species: Homo sapiens; experiment: Concentration required to inhibit the mammalian elastase by 50% was determined; assay type: functional, organism-based
Chymotrypsinogen A = Chymotrypsinogen A (Bos taurus, UniProt P00766); experiment: Concentration required to inhibit the mammalian Chymotrypsinogen by 50% was determined
Human betaherpesvirus 5 [6] = experiment: The compound was evaluated for antiviral activity measured as percentage inhibition determined at a concentration of 100 (uM) against mutant alpha-Ala HCMV protease; assay type: functional
Human betaherpesvirus 5 [7] = experiment: 50 % concentration required to inhibit the mutant alpha-Ala HCMV protease was determined; assay type: functional

Sequence of Capsid scaffolding protein (P16753 1-256 limits assumed): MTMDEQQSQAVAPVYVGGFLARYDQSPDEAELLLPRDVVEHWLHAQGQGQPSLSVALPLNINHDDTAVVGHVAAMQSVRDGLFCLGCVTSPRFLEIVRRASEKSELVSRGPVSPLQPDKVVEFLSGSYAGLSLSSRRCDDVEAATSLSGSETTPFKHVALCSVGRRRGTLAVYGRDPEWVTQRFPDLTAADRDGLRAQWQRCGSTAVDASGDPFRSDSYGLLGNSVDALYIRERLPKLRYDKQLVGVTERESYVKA
Sequence of Acetylcholinesterase (P22303 whole entry): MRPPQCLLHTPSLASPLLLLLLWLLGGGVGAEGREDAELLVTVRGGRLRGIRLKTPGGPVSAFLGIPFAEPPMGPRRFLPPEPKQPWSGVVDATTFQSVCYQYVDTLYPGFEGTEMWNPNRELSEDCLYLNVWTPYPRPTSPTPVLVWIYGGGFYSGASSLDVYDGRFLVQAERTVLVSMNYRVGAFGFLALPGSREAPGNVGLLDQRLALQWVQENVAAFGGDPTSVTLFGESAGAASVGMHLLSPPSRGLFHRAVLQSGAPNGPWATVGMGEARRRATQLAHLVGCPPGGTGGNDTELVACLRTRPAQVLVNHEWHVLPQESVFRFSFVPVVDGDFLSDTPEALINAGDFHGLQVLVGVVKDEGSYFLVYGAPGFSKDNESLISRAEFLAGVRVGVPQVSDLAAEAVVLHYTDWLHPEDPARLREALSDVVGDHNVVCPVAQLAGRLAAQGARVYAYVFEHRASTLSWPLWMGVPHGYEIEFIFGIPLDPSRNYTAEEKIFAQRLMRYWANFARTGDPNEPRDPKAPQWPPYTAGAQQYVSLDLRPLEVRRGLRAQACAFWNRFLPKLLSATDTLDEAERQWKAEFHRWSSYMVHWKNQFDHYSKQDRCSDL

Compound | IC50 [1] | Inhibition (Human betaherpesvirus 5 [2]) | further results
CC(=O)O[C@H]1N(C(=O)NCc2ccccc2)C(=O)C1(C)C | > 100 µM | 6% | 
CNC(=O)N1CCC1=O |  |  | Inhibition (Human betaherpesvirus 5 [3]): 7.7%
CC[C@H]1C(=O)N(C(=O)NCc2ccccc2)[C@@H]1Oc1ccc(C(=O)O)cc1 | 50 µM |  | half-life [4]: 456 min; Ki (Human betaherpesvirus 5 [5]): 8.3 µM
C[C@H]1C(=O)N(C(=O)NCc2ccccc2)[C@@H]1Oc1ccc(C(=O)O)cc1 | 20 µM |  | IC50 (Acetylcholinesterase): > 100 µM; IC50 (Homo sapiens): 3.9 µM; half-life [4]: 186 min; IC50 (Chymotrypsinogen A): 1600 nM; Ki (Human betaherpesvirus 5 [5]): 5.6 µM
CC(=O)O[C@@H]1[C@@H](C)C(=O)N1C(=O)NCc1ccccc1 | 6.5 µM |  | 
CC[C@@H]1C(=O)N(C(=O)NCc2ccccc2)[C@@H]1Oc1ccc(C(=O)O)cc1 | > 100 µM |  | Inhibition (Human betaherpesvirus 5 [6]): 25%
CC(=O)OC1CC(=O)N1 (stereo not given) |  |  | Inhibition (Human betaherpesvirus 5 [3]): 0%
CCC1(CC)C(=O)N(C(=O)NC)[C@@H]1OC(C)=O | > 100 µM | 5% | 
CNC(=O)N1C(=O)C[C@H]1OC(C)=O |  | 29% | IC50 (Human betaherpesvirus 5 [7]): > 100 µM; Inhibition (Human betaherpesvirus 5 [3]): 68.5%
CC(=O)O[C@@H]1[C@H](C)C(=O)N1C(=O)Nc1ccccc1 | > 100 µM |  | 
CC(=O)O[C@@H]1CC(=O)N1C(=O)NCc1ccccc1 | 42 µM |  | half-life [4]: 31.8 min; Ki (Human betaherpesvirus 5 [5]): 20 µM
C[C@@H]1C(=O)N(C(=O)NCc2ccccc2)[C@@H]1Oc1ccc(C(=O)O)cc1 | > 100 µM | 12% | 
O=C(O)c1ccc(O[C@@H]2CC(=O)N2C(=O)Nc2ccccc2)cc1 | > 100 µM | 43% | 
C[C@@H]1C(=O)N(C(=O)NCc2ccccc2)[C@@H]1Oc1ccc(C(=O)C(C)(C)C)cc1 | > 100 µM | 35% | 
CCCCNC(=O)N1C(=O)C[C@H]1OC(C)=O | 68 µM |  | Ki (Human betaherpesvirus 5 [5]): 26 µM
CC(=O)O[C@@H]1CC(=O)N1C(=O)NC(C)C | > 100 µM | 30% | 
O=C(O)c1ccc(O[C@@H]2CC(=O)N2C(=O)NCc2ccccc2)cc1 | > 100 µM | 48% | half-life [4]: 84 min
CCNC(=O)N1C(=O)C[C@H]1OC(C)=O | > 100 µM | 36% | 
C[C@H]1C(=O)N(C(=O)NCc2ccccc2)[C@@H]1Oc1ccc(C(=O)C(C)(C)C)cc1 | 17 µM |  | IC50 (Acetylcholinesterase): > 100 µM; IC50 (Homo sapiens): > 100 µM; half-life [4]: 1370 min; IC50 (Chymotrypsinogen A): > 100000 nM; Ki (Human betaherpesvirus 5 [5]): 5.7 µM
CC(=O)O[C@@H]1[C@@H](C)C(=O)N1C(=O)Nc1ccccc1 | 86 µM |  | 
CC(=O)O[C@@H]1[C@H](C)C(=O)N1C(=O)NCc1ccccc1 | 27 µM |  | 
CC(C)NC(=O)N1C(=O)C[C@H]1Oc1ccc(C(=O)O)cc1 | 100 µM | 8% | 
